In assay [1] the target is Phosphatidylinositol 4-kinase alpha (Homo sapiens, UniProt P42356). The assay is described as follows: Inhibition of N-terminal FLAG-tagged human full length recombinant PI4K3alpha using D-myo-phosphatidylinositol substrate and ATP incubated for 45 mins by ADP-Glo kinase Assay.
The target in assay [2] is Phosphatidylinositol 4-kinase beta (Homo sapiens, UniProt Q9UBF8). Put plainly: Inhibition of N-terminal GST-tagged human full length recombinant PI4K3beta expressed in Sf9 cells using D-myo-phosphatidylinositol substrate and ATP incubated for 45 mins by ADP-Glo kinase Assay.
The target in assay [3] is Phosphatidylinositol 4,5-bisphosphate 3-kinase catalytic subunit gamma isoform (Homo sapiens, UniProt P48736). The assay is described as follows: Inhibition of PI3Kgamma (unknown origin) pre-incubated for 20 mins before phosphatidylinositol 4, 5-bisphosphate substrate addition by kinase-glo plus luminescence assay.
Assay [4] concerns the target T1, Phosphatidylinositol 4,5-bisphosphate 3-kinase catalytic subunit delta isoform (Homo sapiens, UniProt O00329).
T1 sequence (O00329 whole entry): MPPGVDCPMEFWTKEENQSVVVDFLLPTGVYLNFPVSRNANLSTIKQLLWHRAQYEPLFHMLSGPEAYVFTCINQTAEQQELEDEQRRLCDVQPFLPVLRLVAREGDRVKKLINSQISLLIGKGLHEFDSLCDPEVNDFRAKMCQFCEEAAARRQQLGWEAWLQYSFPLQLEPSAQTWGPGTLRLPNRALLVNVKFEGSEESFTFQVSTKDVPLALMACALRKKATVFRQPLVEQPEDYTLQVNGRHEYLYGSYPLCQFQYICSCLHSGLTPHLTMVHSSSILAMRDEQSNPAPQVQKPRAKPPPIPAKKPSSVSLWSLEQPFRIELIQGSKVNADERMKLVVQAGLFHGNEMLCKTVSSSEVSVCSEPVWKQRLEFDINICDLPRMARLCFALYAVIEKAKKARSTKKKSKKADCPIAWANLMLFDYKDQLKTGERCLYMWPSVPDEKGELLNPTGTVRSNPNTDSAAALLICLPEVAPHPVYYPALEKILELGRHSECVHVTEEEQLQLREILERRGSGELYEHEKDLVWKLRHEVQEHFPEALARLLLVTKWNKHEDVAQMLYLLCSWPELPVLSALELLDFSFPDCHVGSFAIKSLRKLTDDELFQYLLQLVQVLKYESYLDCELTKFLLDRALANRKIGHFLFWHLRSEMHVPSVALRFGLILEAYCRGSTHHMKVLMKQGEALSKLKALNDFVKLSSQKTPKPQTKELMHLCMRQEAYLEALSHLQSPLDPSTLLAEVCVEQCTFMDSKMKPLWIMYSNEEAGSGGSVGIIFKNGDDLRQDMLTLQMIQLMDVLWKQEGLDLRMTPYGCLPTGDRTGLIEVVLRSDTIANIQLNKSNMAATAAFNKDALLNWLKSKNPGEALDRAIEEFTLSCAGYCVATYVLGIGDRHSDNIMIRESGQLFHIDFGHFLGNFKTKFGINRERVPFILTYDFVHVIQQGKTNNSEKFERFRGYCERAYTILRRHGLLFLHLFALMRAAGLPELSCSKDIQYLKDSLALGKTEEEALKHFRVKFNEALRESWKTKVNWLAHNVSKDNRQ
The assay is described as follows: Inhibition of PI3Kdelta (unknown origin) pre-incubated for 20 mins before phosphatidylinositol 4, 5-bisphosphate substrate addition by kinase-glo plus luminescence assay.

For assay [5], the target named is Phosphatidylinositol 4-phosphate 5-kinase type-1 gamma (Homo sapiens, UniProt O60331). Put plainly: Inhibition of PIP5K1C (unknown origin) using D-myo-phosphatidylinositol 4-phosphate substrate and ATP by ADP-Glo kinase Assay.
Assay [6] addresses Phosphatidylinositol 4,5-bisphosphate 3-kinase catalytic subunit alpha isoform (Homo sapiens, UniProt P42336). The assay is described as follows: Inhibition of PI3Kalpha (unknown origin) pre-incubated for 20 mins before phosphatidylinositol 4, 5-bisphosphate substrate addition by kinase-glo plus luminescence assay.
The target of assay [7] is Phosphatidylinositol 4,5-bisphosphate 3-kinase catalytic subunit beta isoform (Homo sapiens, UniProt P42338). The assay is described as follows: Inhibition of PI3Kbeta (unknown origin) pre-incubated for 20 mins before phosphatidylinositol 4, 5-bisphosphate substrate addition by kinase-glo plus luminescence assay.
Phosphatidylinositol 4,5-bisphosphate 3-kinase catalytic subunit beta isoform, sequence (P42338 whole entry, canonical isoform): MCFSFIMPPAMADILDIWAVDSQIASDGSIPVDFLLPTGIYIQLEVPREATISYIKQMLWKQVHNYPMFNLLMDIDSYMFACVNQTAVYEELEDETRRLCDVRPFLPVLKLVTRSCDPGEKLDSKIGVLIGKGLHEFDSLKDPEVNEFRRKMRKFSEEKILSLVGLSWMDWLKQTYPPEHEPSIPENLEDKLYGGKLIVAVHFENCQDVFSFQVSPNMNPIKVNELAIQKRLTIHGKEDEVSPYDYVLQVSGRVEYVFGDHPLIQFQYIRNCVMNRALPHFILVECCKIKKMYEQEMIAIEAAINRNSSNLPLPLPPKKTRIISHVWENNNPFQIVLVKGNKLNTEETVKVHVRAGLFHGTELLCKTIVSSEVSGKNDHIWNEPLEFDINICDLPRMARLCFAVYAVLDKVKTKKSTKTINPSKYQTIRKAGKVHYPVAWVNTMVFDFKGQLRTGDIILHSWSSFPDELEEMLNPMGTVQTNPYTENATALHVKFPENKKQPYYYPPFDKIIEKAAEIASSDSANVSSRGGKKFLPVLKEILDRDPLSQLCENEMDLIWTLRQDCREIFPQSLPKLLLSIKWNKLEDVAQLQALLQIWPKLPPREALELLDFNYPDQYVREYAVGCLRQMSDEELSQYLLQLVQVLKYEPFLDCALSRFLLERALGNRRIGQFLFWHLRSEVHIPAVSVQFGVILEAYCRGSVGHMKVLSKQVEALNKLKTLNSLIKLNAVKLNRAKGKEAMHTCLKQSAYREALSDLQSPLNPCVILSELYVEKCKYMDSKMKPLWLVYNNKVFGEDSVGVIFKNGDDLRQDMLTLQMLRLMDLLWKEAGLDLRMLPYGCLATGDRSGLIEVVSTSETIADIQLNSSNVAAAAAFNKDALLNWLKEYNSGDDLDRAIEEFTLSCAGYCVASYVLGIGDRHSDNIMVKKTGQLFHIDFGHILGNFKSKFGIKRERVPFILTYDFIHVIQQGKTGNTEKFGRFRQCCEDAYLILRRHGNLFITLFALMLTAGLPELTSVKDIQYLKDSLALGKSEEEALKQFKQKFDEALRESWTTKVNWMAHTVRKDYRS

Phosphatidylinositol 4,5-bisphosphate 3-kinase catalytic subunit alpha isoform, sequence (P42336 whole entry, canonical isoform): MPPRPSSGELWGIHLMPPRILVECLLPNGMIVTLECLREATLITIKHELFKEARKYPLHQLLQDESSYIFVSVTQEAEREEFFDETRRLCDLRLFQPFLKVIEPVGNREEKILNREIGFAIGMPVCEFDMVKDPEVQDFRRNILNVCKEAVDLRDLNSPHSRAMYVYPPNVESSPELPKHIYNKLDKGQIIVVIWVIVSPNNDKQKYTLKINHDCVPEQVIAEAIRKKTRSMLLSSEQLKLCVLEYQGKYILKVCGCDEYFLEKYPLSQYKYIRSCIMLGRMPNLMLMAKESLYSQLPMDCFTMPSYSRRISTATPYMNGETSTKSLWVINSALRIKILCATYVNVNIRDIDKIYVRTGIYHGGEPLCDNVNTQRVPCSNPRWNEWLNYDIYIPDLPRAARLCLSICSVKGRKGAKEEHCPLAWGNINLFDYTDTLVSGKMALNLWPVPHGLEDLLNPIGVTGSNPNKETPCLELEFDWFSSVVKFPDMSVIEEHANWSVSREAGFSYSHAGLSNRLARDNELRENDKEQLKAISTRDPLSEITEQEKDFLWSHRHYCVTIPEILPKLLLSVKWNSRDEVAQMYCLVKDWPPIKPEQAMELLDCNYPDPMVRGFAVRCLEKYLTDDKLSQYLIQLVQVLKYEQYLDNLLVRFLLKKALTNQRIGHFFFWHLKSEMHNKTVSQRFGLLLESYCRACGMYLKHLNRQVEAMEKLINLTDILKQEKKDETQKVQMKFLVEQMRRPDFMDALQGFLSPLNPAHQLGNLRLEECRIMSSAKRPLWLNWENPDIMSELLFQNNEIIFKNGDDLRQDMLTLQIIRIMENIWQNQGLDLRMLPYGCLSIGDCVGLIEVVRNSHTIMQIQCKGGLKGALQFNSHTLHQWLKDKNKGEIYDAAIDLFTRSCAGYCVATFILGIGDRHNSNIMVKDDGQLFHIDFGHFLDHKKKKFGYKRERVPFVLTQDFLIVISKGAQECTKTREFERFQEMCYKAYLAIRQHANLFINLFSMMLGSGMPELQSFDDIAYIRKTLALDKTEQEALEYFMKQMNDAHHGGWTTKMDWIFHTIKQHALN
Phosphatidylinositol 4-phosphate 5-kinase type-1 gamma, sequence (O60331 whole entry, canonical isoform): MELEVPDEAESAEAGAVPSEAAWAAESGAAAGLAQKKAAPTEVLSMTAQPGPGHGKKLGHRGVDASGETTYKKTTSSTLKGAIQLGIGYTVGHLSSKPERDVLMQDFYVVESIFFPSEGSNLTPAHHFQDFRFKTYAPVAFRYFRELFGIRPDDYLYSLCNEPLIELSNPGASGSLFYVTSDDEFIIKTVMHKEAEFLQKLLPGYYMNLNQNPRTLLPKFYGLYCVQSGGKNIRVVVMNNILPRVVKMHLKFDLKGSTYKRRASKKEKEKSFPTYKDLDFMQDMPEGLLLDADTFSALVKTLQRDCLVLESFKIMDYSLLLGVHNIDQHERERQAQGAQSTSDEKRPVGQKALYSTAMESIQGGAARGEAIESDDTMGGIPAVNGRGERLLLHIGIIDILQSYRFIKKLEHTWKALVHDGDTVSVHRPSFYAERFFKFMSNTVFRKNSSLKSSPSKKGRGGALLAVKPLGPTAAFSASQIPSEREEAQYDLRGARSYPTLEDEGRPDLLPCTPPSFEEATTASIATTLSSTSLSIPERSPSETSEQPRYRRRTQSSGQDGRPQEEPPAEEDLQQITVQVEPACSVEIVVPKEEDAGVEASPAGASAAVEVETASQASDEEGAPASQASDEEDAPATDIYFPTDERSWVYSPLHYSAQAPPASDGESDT
Phosphatidylinositol 4-kinase alpha, sequence (P42356 whole entry): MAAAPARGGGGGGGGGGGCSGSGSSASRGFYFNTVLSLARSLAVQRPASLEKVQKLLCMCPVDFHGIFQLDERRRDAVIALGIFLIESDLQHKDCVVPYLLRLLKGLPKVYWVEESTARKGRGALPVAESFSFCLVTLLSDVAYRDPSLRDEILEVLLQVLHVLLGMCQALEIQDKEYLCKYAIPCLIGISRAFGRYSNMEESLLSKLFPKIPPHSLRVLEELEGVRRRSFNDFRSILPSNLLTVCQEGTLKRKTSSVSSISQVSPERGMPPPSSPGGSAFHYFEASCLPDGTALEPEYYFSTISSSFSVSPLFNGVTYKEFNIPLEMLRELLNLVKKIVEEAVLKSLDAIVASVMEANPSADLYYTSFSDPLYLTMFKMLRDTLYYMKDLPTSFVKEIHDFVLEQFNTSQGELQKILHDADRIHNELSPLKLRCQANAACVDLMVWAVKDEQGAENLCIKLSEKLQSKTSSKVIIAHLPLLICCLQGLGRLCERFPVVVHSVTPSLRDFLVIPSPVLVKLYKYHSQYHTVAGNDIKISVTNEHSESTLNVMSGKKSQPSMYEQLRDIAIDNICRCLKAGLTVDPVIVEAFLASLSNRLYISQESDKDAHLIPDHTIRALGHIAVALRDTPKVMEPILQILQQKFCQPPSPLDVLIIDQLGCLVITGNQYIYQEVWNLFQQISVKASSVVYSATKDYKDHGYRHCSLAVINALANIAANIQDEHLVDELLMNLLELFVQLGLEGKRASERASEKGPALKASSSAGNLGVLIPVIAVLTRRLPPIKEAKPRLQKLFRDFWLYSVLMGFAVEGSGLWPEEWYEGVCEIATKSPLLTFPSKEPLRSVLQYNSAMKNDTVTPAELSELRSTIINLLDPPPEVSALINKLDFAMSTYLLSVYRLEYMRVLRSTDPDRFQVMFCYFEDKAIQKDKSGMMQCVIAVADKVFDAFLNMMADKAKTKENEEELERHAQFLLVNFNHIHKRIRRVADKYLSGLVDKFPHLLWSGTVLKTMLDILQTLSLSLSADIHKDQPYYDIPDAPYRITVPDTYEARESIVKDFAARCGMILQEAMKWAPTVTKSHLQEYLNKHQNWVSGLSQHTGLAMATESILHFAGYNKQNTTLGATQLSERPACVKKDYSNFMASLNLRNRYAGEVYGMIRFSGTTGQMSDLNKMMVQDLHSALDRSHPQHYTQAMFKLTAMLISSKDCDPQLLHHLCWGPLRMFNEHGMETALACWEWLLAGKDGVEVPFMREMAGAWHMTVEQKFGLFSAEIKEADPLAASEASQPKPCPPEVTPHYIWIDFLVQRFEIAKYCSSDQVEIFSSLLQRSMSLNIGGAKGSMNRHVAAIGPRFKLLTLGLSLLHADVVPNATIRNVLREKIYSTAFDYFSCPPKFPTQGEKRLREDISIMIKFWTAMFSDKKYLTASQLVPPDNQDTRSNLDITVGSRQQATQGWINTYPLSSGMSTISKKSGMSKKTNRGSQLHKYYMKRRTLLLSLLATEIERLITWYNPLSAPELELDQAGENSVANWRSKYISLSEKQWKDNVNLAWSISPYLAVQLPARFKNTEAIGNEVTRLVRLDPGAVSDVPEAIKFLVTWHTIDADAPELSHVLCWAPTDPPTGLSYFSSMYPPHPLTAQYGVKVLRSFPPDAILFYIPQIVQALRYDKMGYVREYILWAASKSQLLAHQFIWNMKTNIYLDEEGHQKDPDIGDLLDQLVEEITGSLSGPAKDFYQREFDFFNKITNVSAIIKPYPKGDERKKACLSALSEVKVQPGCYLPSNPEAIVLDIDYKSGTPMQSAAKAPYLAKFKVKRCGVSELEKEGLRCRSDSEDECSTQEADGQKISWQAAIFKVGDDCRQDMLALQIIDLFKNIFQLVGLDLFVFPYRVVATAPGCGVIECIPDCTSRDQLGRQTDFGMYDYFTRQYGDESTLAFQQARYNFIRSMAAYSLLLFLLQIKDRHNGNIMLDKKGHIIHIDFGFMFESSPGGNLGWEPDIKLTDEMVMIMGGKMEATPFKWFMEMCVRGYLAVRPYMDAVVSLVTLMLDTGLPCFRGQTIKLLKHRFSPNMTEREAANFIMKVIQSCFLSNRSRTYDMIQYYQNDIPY

Consider `COc1ccc(-c2ccc3nc(N)sc3c2)cn1`, for which the IC50 in assay [1] is 0.631 µM; in assay [2] it was 1 µM; in assay [3], 0.398 µM; in assay [4], 0.794 µM; in assay [5] it was 25.1 µM.

Turning to `Nc1nc2ccc(-c3ccncc3)cc2s1`, the IC50 in assay [1] was 2.51 µM; in assay [2] it was 1 µM.

As for `COCc1ccc(-c2ccc3nc(N)sc3c2)cn1`, the IC50 is 1 µM in assay [1]; 0.316 µM in assay [2]; 2.51 µM in assay [6]; 15.8 µM in assay [7]; 6.31 µM in assay [4]; above 100 µM in assay [5].

On to `Nc1nc2ccc(-c3ccc(CO)nc3)cc2s1`, for which the IC50 is 1.58 µM in assay [1], 0.794 µM in assay [2], 3.16 µM in assay [6] and above 100 µM in assay [5].

For `CNC(=O)c1ccc(-c2ccc3nc(N)sc3c2)cn1`, the IC50 in assay [1] is 3.16 µM; in assay [2], 2.51 µM; in assay [6], 2 µM; in assay [5], 31.6 µM.

Take `CN(C)C(=O)c1ccc(-c2ccc3nc(N)sc3c2)cn1`: the IC50 in assay [1] was 1.26 µM; in assay [2] it was 39.8 µM; in assay [6] it was 39.8 µM; in assay [7], 79.4 µM; in assay [3], 20 µM; in assay [4], 63.1 µM. Moreover, in assay [5], the IC50 is above 100 µM.

Consider `CC(C)Oc1cncc(-c2ccc3nc(N)sc3c2)c1`, for which the IC50 in assay [1] is 1 µM; in assay [2], 1 µM; in assay [6], 0.501 µM; in assay [7], 1.26 µM; in assay [3], 0.251 µM; in assay [4] it was 1.26 µM. Moreover, half-maximal inhibition in assay [5] (IC50) was put at 31.6 µM.

As for `CS(=O)(=O)c1cncc(-c2ccc3nc(N)sc3c2)c1`, the half-inhibitory concentration (IC50) is 0.398 µM in assay [1]; 3.98 µM in assay [2]; 0.251 µM in assay [6]; 0.251 µM in assay [7]; 0.126 µM in assay [3]; 0.316 µM in assay [4]. In addition, the IC50 in assay [5] was above 100 µM.

As for `Nc1nc2ccc(-c3ccccn3)cc2s1`, the concentration for half-maximal inhibition (IC50) was 10 µM in assay [1]; 2.51 µM in assay [2]; 10 µM in assay [6]; 12.6 µM in assay [3]; 79.4 µM in assay [4]; above 100 µM in assay [5].

On to `Nc1nc2ccc(-c3cccnc3)cc2s1`, for which the concentration for half-maximal inhibition (IC50) in assay [1] was 1.58 µM; in assay [2] it was 0.631 µM; in assay [6] it was 2 µM; in assay [4], 1.26 µM; in assay [5] it was 31.6 µM.

Regarding `Nc1nc2ccc(-c3ncccn3)cc2s1`, the IC50 in assay [1] was 15.8 µM; in assay [2] it was 6.31 µM; in assay [6] it was above 100 µM; in assay [3], 31.6 µM; in assay [4], 50.1 µM; in assay [5] it was 31.6 µM.

With `Nc1nc2ccc(-c3cnccn3)cc2s1`, the 50% inhibitory concentration (IC50) is 7.94 µM in assay [1]; 6.31 µM in assay [2]; 2 µM in assay [6]; 6.31 µM in assay [7]; 3.98 µM in assay [3]; 7.94 µM in assay [4]. The compound further gave an IC50 in assay [5] above 100 µM.

As to `Nc1nc2ccc(-c3ccc(=O)[nH]c3)cc2s1`, the IC50 in assay [1] is 3.16 µM; in assay [2], 3.98 µM; in assay [6], 25.1 µM; in assay [7], 50.1 µM; in assay [3], 10 µM; in assay [4] it was 31.6 µM. Moreover, the IC50 in assay [5] was 39.8 µM.

As to `Nc1nc2ccc(-c3cc[nH]c(=O)c3)cc2s1`, the IC50 in assay [1] is 0.316 µM; in assay [2], 0.631 µM; in assay [6], 3.98 µM; in assay [7] it was 6.31 µM; in assay [3], 1.26 µM; in assay [4] it was 10 µM. The compound further showed an IC50 in assay [5] of 15.8 µM.

Turning to `Cn1ccc(-c2ccc3nc(N)sc3c2)n1`, the IC50 in assay [1] is 2.51 µM; in assay [2], 1.26 µM; in assay [6] it was 6.31 µM; in assay [7], 15.8 µM; in assay [3], 2.51 µM; in assay [4], 12.6 µM. The IC50 in assay [5] was 63.1 µM.

In the case of `Cn1nccc1-c1ccc2nc(N)sc2c1`, the IC50 in assay [1] was 12.6 µM; in assay [2], 1 µM; in assay [6] it was 12.6 µM; in assay [7] it was 31.6 µM; in assay [3] it was 2.51 µM; in assay [4], 25.1 µM. In assay [5], this compound gave an IC50 above 100 µM.

With `Cn1cc(-c2ccc3nc(N)sc3c2)cn1`, the IC50 in assay [1] was 2.51 µM; in assay [2], 1.26 µM; in assay [6], 7.94 µM; in assay [7], 15.8 µM; in assay [3] it was 2.51 µM; in assay [4] it was 7.94 µM. This compound had an IC50 in assay [5] above 100 µM.

As for `CCn1cc(-c2ccc3nc(N)sc3c2)cn1`, the IC50 is 3.16 µM in assay [1]; 1.58 µM in assay [2]; 12.6 µM in assay [6]; 31.6 µM in assay [7]; 3.16 µM in assay [3]; 20 µM in assay [4]. The compound further had an IC50 in assay [5] above 100 µM.

As to `CCCn1cc(-c2ccc3nc(N)sc3c2)cn1`, the IC50 in assay [1] is 1.58 µM; in assay [2], 2 µM; in assay [6] it was 12.6 µM; in assay [7] it was 12.6 µM; in assay [3] it was 1.58 µM; in assay [4] it was 12.6 µM. The compound also showed an IC50 in assay [5] of 25.1 µM.

`CC(C)n1cc(-c2ccc3nc(N)sc3c2)cn1`: the half-maximal inhibitory concentration (IC50) in assay [1] was 25.1 µM; in assay [2], 2.51 µM; in assay [6], 15.8 µM; in assay [3], 3.98 µM; in assay [4], 20 µM; in assay [5], 63.1 µM.

For `Nc1nc2ccc(-c3cnn(C4CC4)c3)cc2s1`, the IC50 is 7.94 µM in assay [1]; 2 µM in assay [2]; 10 µM in assay [6]; 10 µM in assay [7]; 1 µM in assay [3]; 3.98 µM in assay [4]. In assay [5], this compound gave an IC50 above 100 µM.

For `Nc1nc2ccc(-c3cnn(CC4CC4)c3)cc2s1`, the IC50 was 0.631 µM in assay [1]; 2 µM in assay [2]; 12.6 µM in assay [6]; 15.8 µM in assay [7]; 1.26 µM in assay [3]; 20 µM in assay [4].

With `Nc1nc2ccc(-c3cnn(Cc4ccccc4)c3)cc2s1`, the IC50 in assay [1] is 0.158 µM; in assay [2], 0.794 µM; in assay [6] it was 7.94 µM; in assay [7] it was 25.1 µM; in assay [3], 2 µM; in assay [4] it was 20 µM. The same compound had an IC50 in assay [5] above 100 µM.

Consider `Cn1ccc(-c2ccc3nc(N)sc3c2)cc1=O`, for which the IC50 in assay [1] was 0.501 µM; in assay [2], 0.316 µM; in assay [6] it was 2.51 µM; in assay [7], 63.1 µM; in assay [4], 5.01 µM; in assay [5] it was above 100 µM.

With `CCn1ccc(-c2ccc3nc(N)sc3c2)cc1=O`, the IC50 in assay [1] was 0.316 µM; in assay [2], 0.316 µM; in assay [6], 6.31 µM; in assay [7], 50.1 µM; in assay [3] it was 3.16 µM; in assay [4], 10 µM. The compound also gave an IC50 in assay [5] above 100 µM.

Turning to `COCCOn1ccc(-c2ccc3nc(N)sc3c2)cc1=O`, the IC50 in assay [1] was 0.631 µM; in assay [2] it was 10 µM; in assay [6], 25.1 µM; in assay [7], above 200 µM; in assay [3], 10 µM; in assay [4], above 200 µM. This compound gave an IC50 in assay [5] above 100 µM.

`Nc1nc2ccc(-c3ccccc3)cc2s1`: the IC50 in assay [1] was 2.51 µM; in assay [2], 0.501 µM; in assay [6], 12.6 µM; in assay [5], above 100 µM.

(Values after ChEMBL document CHEMBL3600363, “Discovery of potent, selective small molecule inhibitors of α-subtype of type III phosphatidylinositol-4-kinase (PI4KIIIα)” (Bioorg Med Chem Lett, 2015).)
